# Patent US20010020013A1, “Ortho-diphenol compounds, methods and pharmaceutical compositions for inhibiting parp” (GUILFORD PHARMACEUTICALS, INC., priority 1998, published 2001)
# Key:
# C57/BL male mice = assay: Septic shock assay (LPS plus galactosamine challenge), mortality; assay type: in vivo, mouse; conditions: 60, 20, 6 and 2 mg/kg daily IP for three days, first dose 30 min after challenge
# Protocol: Groups of 10 C57/BL male mice weighing 18 to 20 g were administered a test compound, 1-carboxynaphthalene-1-carboxamide at the doses of 60, 20, 6 and 2 mg/kg, daily, by intraperitopeal (IP) injection for three consecutive days. Each animal was first challenged with lipopolysaccharide (LPS, from E. Coli, LD100 of […] IV) plus galactosamine (20 mg/animal IV). The first dose of test compound in a suitable vehicle was given 30 minutes after challenge, and the second and third doses were given 24 hours later on day 2 and day 3 respectively, with only the surviving animals receiving the second or third dose of the test compound. Mortality was recorded every 12 hours after challenge for the three-day testing period. 1-Carboxy-naphthalene-1-carboxamide provided a protection against mortality from septic shock of about 40%.
# [1] = system: human fibroblast cells lines (W138 or BJ cells); assay: Extending proliferative capacity and lifespan of cells; assay type: cell-based; conditions: untreated cells stop dividing after about 40 days
# Protocol: At the time of subdivision, the media is aspirated, and the cells rinsed with phosphate buffer saline (PBS) and then trypsinized. The cells are counted with a Coulter counter and plated at a density of 10^5 cells per cm^2 in 6-well tissue culture plates in DMEM/199 medium supplemented with 10% bovine calf serum and varying amounts ([…]: from a 100X stock solution in DMEM/M199 medium) of a PARP inhibitor of Formula I as disclosed herein. This process is repeated every 7 days until the cell appear to stop dividing. The untreated (control) cells reach senescence and stop dividing after about 40 days in culture.
# male Long-Evans rats = assay: Neuroprotective effect of DPQ on focal cerebral ischemia (distal MCA cauterization plus bilateral CCA occlusion), TTC infarct area and volume; assay type: in vivo, rat
# Protocol: Focal cerebral ischemia was produced by cauterization of the right distal MCA (middle cerebral artery) with bilateral temporary common carotid artery occlusion in male Long-Evans rats for 90 minutes. All procedures performed on the animals were approved by the University Institutional Animal Care and Use Committee of the University of Pennsylvania. A total of 42 rats (weights: 230-340 g) obtained from Charles River were used in this study. The animals fasted overnight with free access to water prior to the surgical procedure.
# Two hours prior to MCA occlusion, varying amounts (control, n=14; 5 mg/kg, n=7; 10 mg/kg, n=7; 20 mg/kg, n=7; and 40 mg/kg, n=7) of the compound, 3,4-dihydro-5-[4-(1-piperidinyl)-butoxy]-1 (2H)-isoquinolinone (“DPQ”) were dissolved in dimethyl sulfoxide (DMSO) using a sonicator. A volume of 1.28 ml/kg of the resulting solution was injected intraperitoneally into fourteen rats.
# Focal cerebral ischemia was produced by cauterization of the distal portion of the right MCA with bilateral temporary common carotid artery (CCA) occlusion by the procedure of Chen et al., “A Model of Focal Ischemic Stroke in the Rat: Reproducible Extensive Cortical Infarction”, Stroke 17:738-43 (1986) and/or Liu et al., “Polyethylene Glycol-conjugated Superoxide Dismutase and Catalase Reduce Ischemic Brain Injury”, Am. J. Physiol. 256:H589-93 (1989), both of which are hereby incorporated by reference. […]
# Two hours after MCA occlusion, the animals were given the same doses of the PARP inhibitor as in the pre-treatment. […] To avoid artifacts due to edema, the damaged area was calculated by subtracting the area of the normal tissue in the hemisphere ipsilateral to the stroke from the area of the hemisphere contralateral to the stroke, by the method of Swanson et al., “A Semiautomated Method for Measuring Brain Infarct Volume”, J. Cereb. […] The total volume of infarction was calculated by summation of the damaged volume of the brain slices.
smiles,measurement,setting,value
"NC(=O)C1(C(=O)O)CC=Cc2ccccc21 (stereo not shown) [1-Carboxy-naphthalene-1-carboxamide, 1-carboxynaphthalene-1-carboxamide]",protection against mortality from septic shock,C57/BL male mice,about 40%
NC(=O)c1cccc(N)c1 [3-amino-benzamide],effect on lifespan of the cells,[1]; 10 μM,little or no effect
same,effect on lifespan of the cells,[1]; 100 μM,lengthen the lifespan of the cells
same,time in culture at which cells still divide,[1]; 1 mM,still divide after 60 days
"O=C1NCCc2c(OCCCCN3CCCCC3)cccc21 [DPQ, 3,4-dihydro-5-[4-(1-piperidinyl)-butoxy]-1 (2H)-isoquinolinone]",distribution of the cross-sectional infarct area (FIG. 1 curve),male Long-Evans rats; 5 mg/kg,approximately halfway between the control and the 10 mg/kg curves
same,distribution of the cross-sectional infarct area (FIG. 1 curve),male Long-Evans rats; 20 mg/kg,approximately halfway between the control and the 10 mg/kg curves
same,distribution of the cross-sectional infarct area (FIG. 1 curve),male Long-Evans rats; 40 mg/kg,close to the control
